This note sets out measurements from ChEMBL document CHEMBL1154053, “The structure-based design, synthesis, and biological evaluation of DNA-binding amide linked bisintercalating bisanthrapyrazole anticancer compounds” (Bioorg Med Chem, 2009).

Test [1] is described as follows: Growth inhibition of human K/VP.5 cells by MTS method. The format is functional.
For test [2], the target named is DNA topoisomerase 2-alpha (Homo sapiens, UniProt P11388). The experiment in a line: Inhibition of decatenation activity of human topoisomerase 2alpha.
Sequence of DNA topoisomerase 2-alpha (P11388 whole entry): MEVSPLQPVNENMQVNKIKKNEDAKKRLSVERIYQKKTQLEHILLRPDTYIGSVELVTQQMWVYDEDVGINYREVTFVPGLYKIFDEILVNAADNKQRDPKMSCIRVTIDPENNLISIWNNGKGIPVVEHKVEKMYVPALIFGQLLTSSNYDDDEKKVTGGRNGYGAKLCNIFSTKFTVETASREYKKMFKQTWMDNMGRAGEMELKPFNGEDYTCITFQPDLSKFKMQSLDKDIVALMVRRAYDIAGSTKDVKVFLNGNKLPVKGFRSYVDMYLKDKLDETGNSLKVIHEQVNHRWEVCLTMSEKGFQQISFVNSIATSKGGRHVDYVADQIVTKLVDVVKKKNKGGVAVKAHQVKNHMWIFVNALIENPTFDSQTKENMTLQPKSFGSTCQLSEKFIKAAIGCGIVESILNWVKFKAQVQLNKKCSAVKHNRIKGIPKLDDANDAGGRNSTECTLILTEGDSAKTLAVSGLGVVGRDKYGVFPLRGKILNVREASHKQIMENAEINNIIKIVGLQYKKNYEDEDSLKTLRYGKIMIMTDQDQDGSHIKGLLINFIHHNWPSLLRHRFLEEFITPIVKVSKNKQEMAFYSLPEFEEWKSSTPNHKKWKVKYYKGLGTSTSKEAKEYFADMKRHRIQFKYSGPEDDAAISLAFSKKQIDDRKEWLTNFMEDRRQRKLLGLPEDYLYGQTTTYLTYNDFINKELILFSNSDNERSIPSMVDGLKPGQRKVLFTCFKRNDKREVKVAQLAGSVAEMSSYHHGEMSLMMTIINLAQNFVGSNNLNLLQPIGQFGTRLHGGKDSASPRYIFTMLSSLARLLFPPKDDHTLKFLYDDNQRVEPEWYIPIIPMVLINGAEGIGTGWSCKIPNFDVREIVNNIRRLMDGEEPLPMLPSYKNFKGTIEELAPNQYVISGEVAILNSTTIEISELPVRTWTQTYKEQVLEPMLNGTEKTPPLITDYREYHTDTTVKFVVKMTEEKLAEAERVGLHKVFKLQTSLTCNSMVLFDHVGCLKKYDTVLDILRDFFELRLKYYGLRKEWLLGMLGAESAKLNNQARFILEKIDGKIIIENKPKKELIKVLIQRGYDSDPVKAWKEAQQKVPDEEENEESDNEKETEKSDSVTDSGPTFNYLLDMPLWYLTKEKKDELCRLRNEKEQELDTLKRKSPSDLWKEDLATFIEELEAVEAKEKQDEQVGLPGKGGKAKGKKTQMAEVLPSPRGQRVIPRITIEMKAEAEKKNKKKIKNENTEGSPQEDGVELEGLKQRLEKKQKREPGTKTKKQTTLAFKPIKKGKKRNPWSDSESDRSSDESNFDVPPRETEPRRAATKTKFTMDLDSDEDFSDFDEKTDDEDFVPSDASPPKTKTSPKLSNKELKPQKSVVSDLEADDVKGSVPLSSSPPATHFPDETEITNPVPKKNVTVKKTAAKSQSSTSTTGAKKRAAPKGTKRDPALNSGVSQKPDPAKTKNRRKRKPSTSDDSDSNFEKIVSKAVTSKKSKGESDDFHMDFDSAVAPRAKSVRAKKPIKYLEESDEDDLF
A further test concerns Calf thymus DNA. The experiment in a line: Binding affinity to calf thymus DNA assessed as change in melting temperature at 2 uM by thermal denaturation assay. Conditions: Bos taurus. The format is nucleic-acid assay.
Test [3] relates to K562. Nature of the test: Resistance factor, ratio of IC50 for human K/VP.5 cells to IC50 for human K562 cells. The format is functional.
For test [4], the system named is K562. The experiment in a line: Growth inhibition of human K562 cells by MTS method. The format is functional, cell-based.

As for `CN(CCO)CCn1nc2c3c(cccc31)C(=O)c1c(Cl)cccc1-2`, the values for the concentration for half-maximal inhibition (IC50) (in test [1]; in test [2]; with K562 [4]) were 1.9 µM, 10 µM and 3.1 µM, respectively. Moreover, the ΔTm with Calf thymus DNA is 5.4 °C. Further, the “Ratio IC50” value in the test with K562 [3] came out at 0.63.
In the case of `CN(CCN=[N+]=[N-])CCn1nc2c3c(cccc31)C(=O)c1c(Cl)cccc1-2`, the IC50 in test [2] was 25 µM; with K562 [4], 3.6 µM. In addition, the ΔTm in the test on Calf thymus DNA amounted to 1.1 °C.
For `CN(CCNC(=O)CCCC(=O)NCCN(C)CCn1nc2c3c(cccc31)C(=O)c1c(Cl)cccc1-2)CCn1nc2c3c(cccc31)C(=O)c1c(Cl)cccc1-2`, the IC50 worked out at 2.3 µM in test [1], 25 µM in test [2] and 5.7 µM in the test on K562 [4]. Moreover, the ΔTm in the test with Calf thymus DNA worked out at 17.8 °C. The “Ratio IC50” value in the test on K562 [3] was 0.39.
With `COc1cccc2c1C(=O)c1c(O)c3c(c(O)c1C2=O)C[C@@](O)(C(=O)CO)C[C@@H]3O[C@H]1C[C@H](N)[C@H](O)[C@H](C)O1`, in the test with Calf thymus DNA, the ΔTm came to 17.8 °C.
`CN(CCNC(=O)CC(=O)NCCN(C)CCn1nc2c3c(cccc31)C(=O)c1c(Cl)cccc1-2)CCn1nc2c3c(cccc31)C(=O)c1c(Cl)cccc1-2`: the IC50 in test [1] was determined as 2 µM; in test [2] it was 42 µM; in the test with K562 [4] it was 2.6 µM. Also, the ΔTm with Calf thymus DNA is 9.6 °C. Also, the “Ratio IC50” value in the test with K562 [3] worked out at 0.77.
For the compound `CN(CCNC(=O)CCC(=O)NCCN(C)CCn1nc2c3c(cccc31)C(=O)c1c(Cl)cccc1-2)CCn1nc2c3c(cccc31)C(=O)c1c(Cl)cccc1-2`, the 50% inhibitory concentration (IC50) turned out to be 1.6 µM in test [1], 7 µM in test [2] and 3.5 µM with K562 [4]. For the same compound, the ΔTm with Calf thymus DNA is 21.8 °C. Moreover, in the test on K562 [3], the “Ratio IC50” value was found to be 0.44.
The corresponding values for `CN(CCNC(=O)CCCCC(=O)NCCN(C)CCn1nc2c3c(cccc31)C(=O)c1c(Cl)cccc1-2)CCn1nc2c3c(cccc31)C(=O)c1c(Cl)cccc1-2` are 3.3 µM, 48 µM, 6.7 µM, 6.8 °C and 0.48.
For `CN(CCNC(=O)CCCCCC(=O)NCCN(C)CCn1nc2c3c(cccc31)C(=O)c1c(Cl)cccc1-2)CCn1nc2c3c(cccc31)C(=O)c1c(Cl)cccc1-2`, in that order: 2.5 µM, 22 µM, 4.6 µM, 4.8 °C and 0.55.
The corresponding values for `CN(CCN)CCn1nc2c3c(cccc31)C(=O)c1c(Cl)cccc1-2` are 1.5 µM, 18 µM, 3.6 µM, 10.2 °C and 0.43.
